Experimental findings from patent US20250282749A1 (Tango Therapeutics, Inc., priority 2022, published 2025) are described below.

Common to all, as to format: cell-based
The subject of experiment [1] is PRMT5 (SDMA) in HAP1 MTAP-intact cell line. The experiment in a line: SDMA in-cell western assay, HAP1 MTAP-intact cell line. To be noted: Homo sapiens, HAP1 MTAP-intact cell line (endogenous MTAP), read-out: Hap 1 MTAP intact IC50. The source says: (§1) HAP1 MTAP-intact is a cell line in which endogenous levels of MTAP are expressed, and HAP1 MTAP-deleted is an MTAP-null cell line.

The test system of experiment [2] is HAP1 MTAP-deleted cell line. The experiment in a line: viability assay for the MTAP-deleted cell line. To be noted: Homo sapiens.
The subject of experiment [3] is PRMT5 (SDMA) in HAP1 MTAP-deleted cell line. The experiment in a line: SDMA in-cell western assay, HAP1 MTAP-deleted cell line. To be noted: for IC50 / IC90: Homo sapiens, SDMA in-cell western, HAP1 MTAP-deleted (MTAP-null) cell line; for Hap1 MTAP intact/deleted ratio: ratio of SDMA in-cell western IC50 in HAP1 MTAP-intact to IC50 in HAP1 MTAP-deleted cell line.
Excerpt: as §1

As a reminder, the IC50 is the concentration that inhibits the measured activity by half. Usually IC90 stands for the point of the concentration-response curve where the effect stands at 90%. Lower therefore signals greater potency. Take `CCc1cc(NC(=O)C(=O)N2C[C@@H](C)N(C(=O)OC(C)(C)C)C[C@@H]2c2ccc(F)cc2)cnc1N` [Compound 145, (2R,5S)-tert-butyl 4-(2-((6-amino-5-ethylpyridin-3-yl)amino)-2-oxoacetyl)-5-(4-fluorophenyl)-2-methylpiperazine-1-carboxylate]: the IC50 in experiment [1] was more than 50 nM; in experiment [2], less than 100 nM; in experiment [3], 5 to 50 nM. The molecule also had an IC90 in experiment [3] of less than 75 nM. For the same molecule, the “Hap1 MTAP intact/deleted ratio” value in experiment [3] is reported as “B (an IC50 ratio greater than or equal to 15 fold but lower than 30 fold)”.

`C[C@@H]1CN(C(=O)C(=O)Nc2cncc3[nH]ncc23)[C@@H](c2ccccc2)CN1C(=O)C1(C)CC1` [Compound 147, 2-((2S,5R)-5-methyl-4-(1-methylcyclopropanecarbonyl)-2-phenylpiperazin-1-yl)-2-oxo-N-(1H-pyrazolo[3,4-c]pyridin-4-yl)acetamide]: the IC50 in experiment [1] was more than 50 nM. In experiment [2], this molecule had an IC50 of 100 to 1000 nM. Also, in experiment [3], the IC50 is less than 5 nM, the IC90 was more than 125 nM and the “Hap1 MTAP intact/deleted ratio” value is “A (an IC50 ratio greater than or equal to 30 fold)”.

As to `CCc1cc(NC(=O)C(=O)N2C[C@@H](C)N(C(=O)C3(C(F)(F)F)CC3)C[C@@H]2c2cccc(C(F)(F)F)c2)cnc1N` [Compound 150, N-(6-amino-5-ethylpyridin-3-yl)-2-((2S,5R)-5-methyl-4-(1-(trifluoromethyl)cyclopropanecarbonyl)-2-(3-(trifluoromethyl)phenyl)piperazin-1-yl)-2-oxoacetamide], the results for the IC50 in experiment [1], in experiment [2] and in experiment [3] were more than 50 nM, less than 100 nM and 5 to 50 nM, respectively. For the same molecule, in experiment [3], the IC90 is more than 125 nM. The “Hap1 MTAP intact/deleted ratio” value in experiment [3] is “A (an IC50 ratio greater than or equal to 30 fold)”.

With `C[C@@H]1CN(C(=O)C(=O)Nc2cnc(N)c(C3CC3)c2)[C@@H](c2ccc(F)cc2)CN1C(=O)C(C)(C)C` [Compound 152, N-(6-amino-5-cyclopropylpyridin-3-yl)-2-((2S,5R)-2-(4-fluorophenyl)-5-methyl-4-pivaloylpiperazin-1-yl)-2-oxoacetamide], the IC50 in experiment [1] lay in the range of 5 to 50 nM. The IC50 in experiment [2] is less than 100 nM. Further, in experiment [3], the IC50 was less than 5 nM, the 90% effect concentration (IC90) was in the range of 75 to 125 nM and the “Hap1 MTAP intact/deleted ratio” value is listed as “C (an IC50 ratio of less than 15 fold)”.

For the molecule `CCC(=O)N1C[C@H](c2ccc(F)cc2)N(C(=O)C(=O)Nc2cnc(N)c(C3CC3)c2)C[C@H]1C` [Compound 153], the IC50 in experiment [1] was more than 50 nM. This molecule also yielded an IC50 in experiment [2] of 100 to 1000 nM. Moreover, in experiment [3], the IC50 was 5 to 50 nM, the IC90 is more than 125 nM and the “Hap1 MTAP intact/deleted ratio” value is “B (an IC50 ratio greater than or equal to 15 fold but lower than 30 fold)”.

As for `Cc1cc(NC(=O)C(=O)N2C[C@@H](C)N(CC(C)C)C[C@@H]2c2ccc(F)cc2)cnc1N` [Compound 154, N-(6-amino-5-methyl-3-pyridyl)-2-[(2S,5R)-2-(4-fluorophenyl)-4-isobutyl-5-methyl-piperazin-1-yl]-2-oxo-acetamide], in experiment [1], the IC50 is more than 50 nM. The IC50 in experiment [2] is more than 1000 nM. Moreover, in experiment [3], the IC50 was more than 50 nM, the IC90 was more than 125 nM and the “Hap1 MTAP intact/deleted ratio” value is recorded as “C (an IC50 ratio of less than 15 fold)”.

For `C[C@@H]1CN(C(=O)C(=O)Nc2cncc3cn[nH]c23)[C@@H](c2ccccc2)CN1C(=O)C(C)(C)C` [Compound 156, 2-((2S,5R)-5-methyl-2-phenyl-4-pivaloylpiperazin-1-yl)-2-oxo-N-(1H-pyrazolo[4,3-c]pyridin-7-yl)acetamide], in experiment [1], the IC50 lay in the range of 5 to 50 nM. For the same molecule, in experiment [2], the IC50 was less than 100 nM. In experiment [3], the IC50 was less than 5 nM, the IC90 was less than 75 nM and the “Hap1 MTAP intact/deleted ratio” value is listed as “C (an IC50 ratio of less than 15 fold)”.

`Cc1cc(NC(=O)C(=O)N2C[C@@H](C)N(C(=O)C(C)C)C[C@@H]2c2ccc(F)c(F)c2)cnc1N` [Compound 158, N-(6-amino-5-methylpyridin-3-yl)-2-((2S,5R)-2-(3,4-difluorophenyl)-4-isobutyryl-5-methylpiperazin-1-yl)-2-oxoacetamide]: the IC50 in experiment [1] is more than 50 nM. The same molecule registered an IC50 in experiment [2] of 100 to 1000 nM. Moreover, in experiment [3], the IC50 is 5 to 50 nM, the IC90 is more than 125 nM and the “Hap1 MTAP intact/deleted ratio” value is “A (an IC50 ratio greater than or equal to 30 fold)”.

As for `CC(C)C(=O)N1C[C@@H](c2ccc(F)c(F)c2)N(C(=O)C(=O)Nc2cnc(N)c(C3CC3)c2)C[C@H]1C` [Compound 160, N-(6-amino-5-cyclopropylpyridin-3-yl)-2-((5R)-2-(3,4-difluorophenyl)-4-isobutyryl-5-methylpiperazin-1-yl)-2-oxoacetamide], in experiment [1], the IC50 is more than 50 nM. In addition, the IC50 in experiment [2] was more than 1000 nM. Further, in experiment [3], the IC50 was more than 50 nM, the IC90 is more than 125 nM and the “Hap1 MTAP intact/deleted ratio” value is “C (an IC50 ratio of less than 15 fold)”.

Turning to `C[C@@H]1CN(C(=O)C(=O)Nc2cnc(N)c3c2cnn3C)[C@@H](c2ccccc2)CN1C` [Compound 164, N-(7-Amino-1-methyl-pyrazolo[3,4-c]pyridin-4-yl)-2-oxo-2-[(2S,5R)-4,5-dimethyl-2-phenyl-piperazin-1-yl]acetamide], the IC50 in experiment [1] is more than 50 nM. In experiment [2], the IC50 was less than 100 nM. For the same molecule, in experiment [3], the IC50 fell in the range of 5 to 50 nM, the IC90 is 75 to 125 nM and the “Hap1 MTAP intact/deleted ratio” value was “A (an IC50 ratio greater than or equal to 30 fold)”.

For `C[C@@H]1CN(C(=O)C(=O)Nc2cnc(N)c3c2cnn3C)[C@@H](c2ccccc2)CN1C(=O)C1(C)CC1` [Compound 169, N-(7-Amino-1-methyl-pyrazolo[3,4-c]pyridin-4-yl)-2-oxo-2-[(2S,5R)-5-methyl-4-(1-methylcyclopropanecarbonyl)-2-phenyl-piperazin-1-yl]acetamide], the IC50 was 5 to 50 nM in experiment [1], less than 100 nM in experiment [2] and less than 5 nM in experiment [3]. The molecule also showed a 90% effect concentration (IC90) in experiment [3] of less than 75 nM. For the same molecule, in experiment [3], the “Hap1 MTAP intact/deleted ratio” value is given as “C (an IC50 ratio of less than 15 fold)”.
